As a reminder, the IC50 is the concentration at which inhibition is half-maximal.

In patent publication US20250353820A1, “ANTIVIRAL PYRAZOLOPYRIDINONE COMPOUNDS” (Novartis AG, priority 2019, published 2025) one finds IC50 data, which are given here for 28 compounds.

This assay deals with human HSV DNA polymerase UL30 (Human herpesvirus 1 (strain 17) (HHV-1) (Human herpes simplex virus 1), UniProt P04293). As to the kind of experiment: biochemical. Particulars: 625 pM HSV polymerase, 20 minutes at room temperature; read-out: HSV-polymerase Biochemical IC50.
Turning to `N#Cc1ccc(CNC(=O)c2nn(CCO)c3c2CCN(CC2(S(=O)(=O)C4CC4)CC2)C3=O)cc1` [Example 216, N-(4-Cyanobenzyl)-6-((1-(cyclopropylsulfonyl)cyclopropyl)methyl)-1-(2-hydroxyethyl)-7-oxo-4,5,6,7-tetrahydro-1H-pyrazolo[3,4-c]pyridine-3-carboxamide], the IC50 stood at 69 nM.

`Cn1nc(C(=O)NCc2ccc(C#N)cc2)c2c1C(=O)N(CC1(S(=O)(=O)C3(CO)COC3)CC1)CC2` [Example 173, N-(4-Cyanobenzyl)-6-((1-((3-(hydroxymethyl)oxetan-3-yl)sulfonyl)cyclopropyl)methyl)-1-methyl-7-oxo-4,5,6,7-tetrahydro-1H-pyrazolo[3,4-c]pyridine-3-carboxamide]: the IC50 is 62 nM. On to `CC(C)(CO)S(=O)(=O)C1(CN2CCc3c(C(=O)NCc4ccc(C#N)cc4)n[nH]c3C2=O)CC1` [Example 49, N-(4-cyanobenzyl)-6-((1-((1-hydroxy-2-methylpropan-2-yl)sulfonyl)cyclopropyl)methyl)-7-oxo-4,5,6,7-tetrahydro-1H-pyrazolo[3,4-c]pyridine-3-carboxamide], for which the IC50 is 37 nM. In the case of `Cn1nc(C(=O)NCc2ccc(F)cc2)c2c1C(=O)N(CC1(S(=O)(=O)C(C)(C)CO)CC1)CC2` [Example 53, N-(4-Fluorobenzyl)-6-((1-((1-hydroxy-2-methylpropan-2-yl)sulfonyl)cyclopropyl)methyl)-1-methyl-7-oxo-4,5,6,7-tetrahydro-1H-pyrazolo[3,4-c]pyridine-3-carboxamide], the concentration for half-maximal inhibition (IC50) amounted to 70 nM. For `CC(C)(O)Cn1nc(C(=O)NCc2ccc(Cl)cc2)c2c1C(=O)N(CC1(S(C)(=O)=O)CC1)CC2` [Example 231], the IC50 came out at 278 nM.

Turning to `C[C@@H](N)C(=O)NCC(C)(C)S(=O)(=O)C1(CN2CCc3c(C(=O)NCc4ccc(C#N)cc4)nn(C)c3C2=O)CC1` [Example 75, (R)-6-((1-((1-(2-Aminopropanamido)-2-methylpropan-2-yl)sulfonyl)cyclopropyl)methyl)-N-(4-cyanobenzyl)-1-methyl-7-oxo-4,5,6,7-tetrahydro-1H-pyrazolo[3,4-c]pyridine-3-carboxamide], the IC50 was 133 nM. The result for `CC(C)(CO)S(=O)(=O)C1(CN2CCc3c(C(=O)NCc4ccc(Cl)cc4)nn(CCO)c3C2=O)CC1` [Example 221] reads 13 nM; that for `Cn1nc(C(=O)NCc2ccc(Cl)cc2)c2c1C(=O)N(CC1(S(=O)(=O)C(C)(C)CO)CC1)CC2` [Example 50, N-(4-Chlorobenzyl)-6-((1-((1-hydroxy-2-methylpropan-2-yl)sulfonyl)cyclopropyl)methyl)-1-methyl-7-oxo-4,5,6,7-tetrahydro-1H-pyrazolo[3,4-c]pyridine-3-carboxamide], 16 nM. With `Cn1nc(C(=O)NCc2ccc(Cl)cc2)c2c1C(=O)N(CC1(S(C)(=O)=O)CC1)CC2` [Example 22, N-(4-Chlorobenzyl)-1-methyl-6-((1-(methylsulfonyl)cyclopropyl)methyl)-7-oxo-4,5,6,7-tetrahydro-1H-pyrazolo[3,4-c]pyridine-3-carboxamide], the IC50 stood at 436 nM.

`Cn1nc(C(=O)NCc2ccc(C#N)cc2)c2c1C(=O)N(CC1(S(=O)(=O)C(C)(C)CN3CCOCC3)CC1)CC2` [Example 61, N-(4-Cyanobenzyl)-1-methyl-6-((1-((2-methyl-1-morpholinopropan-2-yl)sulfonyl)cyclopropyl)methyl)-7-oxo-4,5,6,7-tetrahydro-1H-pyrazolo[3,4-c]pyridine-3-carboxamide]: the IC50 was determined as 75 nM. For `CC1(S(=O)(=O)C2(CN3CCc4c(C(=O)NCc5ccc(C#N)cc5)nn(CCCO)c4C3=O)CC2)CC1` [Example 237, N-(4-Cyanobenzyl)-1-(3-hydroxypropyl)-6-((1-((1-methylcyclopropyl)sulfonyl)cyclopropyl)methyl)-7-oxo-4,5,6,7-tetrahydro-1H-pyrazolo[3,4-c]pyridine-3-carboxamide], the IC50 amounted to 41 nM. As for `Cn1nc(C(=O)OCc2ccc(C#N)cc2)c2c1C(=O)N(CC1(S(=O)(=O)C3CC3)CC1)CC2` [Example 24, 4-cyanobenzyl 6-((1-(cyclopropylsulfonyl)cyclopropyl)methyl)-1-methyl-7-oxo-4,5,6,7-tetrahydro-1H-pyrazolo[3,4-c]pyridine-3-carboxylate], the IC50 turned out to be 467 nM. Under `Cn1nc(C(=O)NCc2ccc(C#N)cc2)c2c1C(=O)N(CC1(S(=O)(=O)C(C)(C)[C@@H](O)CO)CC1)CC2` [Example 192, (S)—N-(4-cyanobenzyl)-6-((1-((3,4-dihydroxy-2-methylbutan-2-yl)sulfonyl)cyclopropyl)methyl)-1-methyl-7-oxo-4,5,6,7-tetrahydro-1H-pyrazolo[3,4-c]pyridine-3-carboxamide] stands 30 nM.

With `Cn1nc(C(=O)NCc2ccc(C#N)cc2)c2c1C(=O)N(CC1(S(=O)(=O)C(C)(CN)CO)CC1)CC2` (stereo not shown) [Example 183, 6-((1-((1-Amino-3-hydroxy-2-methylpropan-2-yl)sulfonyl)cyclopropyl)methyl)-N-(4-cyanobenzyl)-1-methyl-7-oxo-4,5,6,7-tetrahydro-1H-pyrazolo[3,4-c]pyridine-3-carboxamide], the IC50 came to 65 nM.

For the compound `Cn1nc(C(=O)NCc2ccc(C#N)cc2)c2c1C(=O)N(CC1(S(=O)(=O)N3C[C@H](N)[C@@H](O)C3)CC1)CC2` [Example 140, 6-((1-(((3S,4S)-3-Amino-4-hydroxypyrrolidin-1-yl)sulfonyl)cyclopropyl)methyl)-N-(4-cyanobenzyl)-1-methyl-7-oxo-4,5,6,7-tetrahydro-1H-pyrazolo[3,4-c]pyridine-3-carboxamide], the IC50 came to 147 nM. Regarding `CNCCOCC(C)(C)S(=O)(=O)C1(CN2CCc3c(C(=O)NCc4ccc(C#N)cc4)nn(C)c3C2=O)CC1` [Example 101, N-(4-Cyanobenzyl)-1-methyl-6-((1-((2-methyl-1-(2-(methylamino)ethoxy)propan-2-yl)sulfonyl)cyclopropyl)methyl)-7-oxo-4,5,6,7-tetrahydro-1H-pyrazolo[3,4-c]pyridine-3-carboxamide], the IC50 came out at 32 nM. Turning to `Cn1nc(C(=O)NCc2ccc(C#N)c(F)c2)c2c1C(=O)N(CC1(S(C)(=O)=O)CC1)CC2` [Example 23, N-(4-Cyano-3-fluorobenzyl)-1-methyl-6-((1-(methylsulfonyl)cyclopropyl)methyl)-7-oxo-4,5,6,7-tetrahydro-1H-pyrazolo[3,4-c]pyridine-3-carboxamide], the IC50 came out at 345 nM. For `COc1cccnc1NS(=O)(=O)C1(CN2CCc3c(C(=O)NCc4ccc(C#N)cc4)nn(C)c3C2=O)CC1` [Example 159], the IC50 stood at 423 nM. Take `CCS(=O)(=O)C1(CN2CCc3c(C(=O)NCc4ccc(C#N)cc4)nn(C)c3C2=O)CC1` [Example 20, N-(4-Cyanobenzyl)-6-((1-(ethylsulfonyl)cyclopropyl)methyl)-1-methyl-7-oxo-4,5,6,7-tetrahydro-1H-pyrazolo[3,4-c]pyridine-3-carboxamide]: the IC50 turned out to be 259 nM. As for `CN1CCN(S(=O)(=O)C2(CN3CCc4c(C(=O)NCc5ccc(C#N)cc5)nn(C)c4C3=O)CC2)CC1` [Example 136, N-(4-Cyanobenzyl)-1-methyl-6-((1-((4-methylpiperazin-1-yl)sulfonyl)cyclopropyl)methyl)-7-oxo-4,5,6,7-tetrahydro-1H-pyrazolo[3,4-c]pyridine-3-carboxamide], the IC50 stood at 243 nM. For the compound `Cn1nc(C(=O)NCc2ccc(Cl)cc2)c2c1C(=O)N(CC1(S(=O)(=O)NCC(C)(C)O)CC1)CC2` [Example 152, N-(4-Chlorobenzyl)-6-((1-(N-(2-hydroxy-2-methylpropyl)sulfamoyl)cyclopropyl)methyl)-1-methyl-7-oxo-4,5,6,7-tetrahydro-1H-pyrazolo[3,4-c]pyridine-3-carboxamide], the IC50 amounted to 827 nM. For the compound `CN(Cc1ccc(C#N)cc1)C(=O)c1nn(C)c2c1CCN(CC1(S(=O)(=O)C3CC3)CC1)C2=O` [Example 6, N-(4-Cyanobenzyl)-6-((1-(cyclopropylsulfonyl)cyclopropyl)methyl)-N,1-dimethyl-7-oxo-4,5,6,7-tetrahydro-1H-pyrazolo[3,4-c]pyridine-3-carboxamide], the IC50 worked out at 959 nM. Consider `COc1ncccc1NS(=O)(=O)C1(CN2CCc3c(C(=O)NCc4ccc(C#N)cc4)nn(C)c3C2=O)CC1` [Example 162], for which the IC50 was 18 nM. As for `Cn1nc(C(=O)NCc2ccc(C#N)cc2)c2c1C(=O)N(CC1(S(=O)(=O)C(C)(C)[C@H](O)CN)CC1)CC2` [Example 198, (R)-6-((1-((4-amino-3-hydroxy-2-methylbutan-2-yl)sulfonyl)cyclopropyl)methyl)-N-(4-cyanobenzyl)-1-methyl-7-oxo-4,5,6,7-tetrahydro-1H-pyrazolo[3,4-c]pyridine-3-carboxamide], the half-inhibitory concentration (IC50) is 23 nM. On to `Cn1nc(C(=O)NCc2ccc(C#N)cn2)c2c1C(=O)N(CC1(S(=O)(=O)C3CC3)CC1)CC2` [Example 14, N-((5-Cyanopyridin-2-yl)methyl)-6-((1-(cyclopropylsulfonyl)cyclopropyl)methyl)-1-methyl-7-oxo-4,5,6,7-tetrahydro-1H-pyrazolo[3,4-c]pyridine-3-carboxamide], for which the IC50 was 1610 nM. Take `Cc1cc(C#N)ccc1CNC(=O)c1nn(C)c2c1CCN(CC1(S(=O)(=O)C3CC3)CC1)C2=O` [Example 12, N-(4-Cyano-2-methylbenzyl)-6-((1-(cyclopropylsulfonyl)cyclopropyl)methyl)-1-methyl-7-oxo-4,5,6,7-tetrahydro-1H-pyrazolo[3,4-c]pyridine-3-carboxamide]: the IC50 amounted to 346 nM. Take `Cn1nc(C(=O)NCc2ccc(C#N)cc2)c2c1C(=O)N(CC1(S(=O)(=O)N3CCNCC3)CC1)CC2` [Example 133, N-(4-Cyanobenzyl)-1-methyl-7-oxo-6-((1-(piperazin-1-ylsulfonyl)cyclopropyl)methyl)-4,5,6,7-tetrahydro-1H-pyrazolo[3,4-c]pyridine-3-carboxamide]: the IC50 was found to be 258 nM.

On to `Cn1nc(C(=O)NCc2ccc(C#N)cc2)c2c1C(=O)N(CC1(S(=O)(=O)N3CC[C@H](O)C3)CC1)CC2` [Example 127, (S)-N-(4-Cyanobenzyl)-6-((1-((3-hydroxypyrrolidin-1-yl)sulfonyl)cyclopropyl)methyl)-1-methyl-7-oxo-4,5,6,7-tetrahydro-1H-pyrazolo[3,4-c]pyridine-3-carboxamide], for which the IC50 is 67 nM.
